Test results: patent US20060229308A1, “Substituted pyrirmidin-4-ylamine analogues as vanilloid receptor ligands” (Neurogen Corporation, priority 2003, published 2006)
pIC50: −log10 of the molar value.

Biological target: T1, human capsaicin receptor (Homo sapiens, UniProt Q8NER1)
T1 construct: transfected with the pBK-CMV expression construct encoding the full length human capsaicin receptor using standard methods; expressed in transfected cells
Assay: Calcium mobilization assay, agonist response
Type: cell-based
Details: capsaicin positive control, calcium mobilization in cells expressing human capsaicin receptor; read-out: approximate EC90 concentration
Description: Cells transfected with expression plasmids (as described in Example 4) and thereby expressing human capsaicin receptor are seeded and grown to 70-90% confluency in FALCON black-walled, clear-bottomed 96-well plates (#3904, BECTON-DICKINSON, Franklin Lakes, N.J.). The culture medium is emptied from the 96 well plates and FLUO-3 AM calcium sensitive dye (Molecular Probes, Eugene, Oreg.) is added to each well (dye solution: 1 mg FLUO-3 AM, 440 μL DMSO and 440 μl 20% pluronic acid in DMSO, diluted 1:250 in Krebs-Ringer HEPES (KRH) buffer (25 mM HEPES, 5 mM KCl, 0.96 mM NaH2PO4, 1 mM MgSO4, 2 mM CaCl2, 5 mM glucose, 1 mM probenecid, pH 7.4), 50 μl diluted solution per well). […]
To measure the ability of a test compound to agonize or antagonize a calcium mobilization response in cells expressing capsaicin receptors to capsaicin or other vanilloid agonist, the EC50 of the agonist capsaicin is first determined. […] Capsaicin-induced calcium mobilization is monitored using either FLUOROSKAN ASCENT (Labsystems; Franklin, Mass.) or FLIPR (fluorometric imaging plate reader system; Molecular Devices, Sunnyvale, Calif.) instruments. […] In this equation, y is the maximum fluorescence signal, x is the concentration of the agonist or antagonist (in this case, capsaicin), a is the Emax, b corresponds to the EC50 value and c is the Hill coefficient. […]

T1 sequence (Q8NER1 whole entry): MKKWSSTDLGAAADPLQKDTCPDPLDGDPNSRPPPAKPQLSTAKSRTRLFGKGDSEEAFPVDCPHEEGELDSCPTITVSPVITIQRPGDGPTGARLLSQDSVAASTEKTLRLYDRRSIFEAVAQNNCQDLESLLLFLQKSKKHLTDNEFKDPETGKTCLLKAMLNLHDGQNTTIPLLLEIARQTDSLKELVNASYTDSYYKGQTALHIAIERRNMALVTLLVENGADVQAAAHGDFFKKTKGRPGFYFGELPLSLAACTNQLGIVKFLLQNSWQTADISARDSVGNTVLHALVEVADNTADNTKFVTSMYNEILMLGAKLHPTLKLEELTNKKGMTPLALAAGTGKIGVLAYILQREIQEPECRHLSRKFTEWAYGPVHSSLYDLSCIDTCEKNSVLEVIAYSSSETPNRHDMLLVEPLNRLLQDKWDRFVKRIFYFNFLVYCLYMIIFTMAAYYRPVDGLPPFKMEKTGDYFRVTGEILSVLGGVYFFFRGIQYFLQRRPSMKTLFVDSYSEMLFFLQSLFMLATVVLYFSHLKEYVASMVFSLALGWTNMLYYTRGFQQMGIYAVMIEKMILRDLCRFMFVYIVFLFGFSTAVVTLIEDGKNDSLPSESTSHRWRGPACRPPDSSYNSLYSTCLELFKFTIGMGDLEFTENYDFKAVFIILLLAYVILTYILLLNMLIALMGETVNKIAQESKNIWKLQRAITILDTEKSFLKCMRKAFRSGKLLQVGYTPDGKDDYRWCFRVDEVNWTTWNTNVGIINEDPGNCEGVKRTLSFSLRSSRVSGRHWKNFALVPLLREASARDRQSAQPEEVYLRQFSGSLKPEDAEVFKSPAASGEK

EC90 [nM] | Structure (SMILES)
~100 | COc1cc(CNC(=O)CCCC/C=C/C(C)C)ccc1O [capsaicin]

Biological target: T1, human capsaicin receptor
Assay: Calcium mobilization assay, determination of antagonist activity
Type: cell-based
Details: 50% decrease in fluorescence response of cells expressing human capsaicin receptor exposed to capsaicin; Example 6
Excerpt: This Example illustrates the preparation of VR1-transfected cells and VR1-containing membrane preparations for use in capsaicin binding assays (Example 5).
A cDNA encoding full length human capsaicin receptor (SEQ ID NO:1, 2 or 3 of U.S. Pat. No. 6,482,611) was subcloned in the plasmid pBK-CMV (Stratagene, La Jolla, Calif.) for recombinant expression in mammalian cells.
Human embryonic kidney (HEK293) cells were transfected with the pBK-CMV expression construct encoding the full length human capsaicin receptor using standard methods. The transfected cells were selected for two weeks in media containing G418 (400 μg/ml) to obtain a pool of stably transfected cells. Independent clones were isolated from this pool by limiting dilution to obtain clonal stable cell lines for use in subsequent experiments.
This Example illustrates representative calcium mobilization assays for use in evaluating test compounds for agonist and antagonist activity.
Cells transfected with expression plasmids (as described in Example 4) and thereby expressing human capsaicin receptor are seeded and grown to 70-90% confluency in FALCON black-walled, clear-bottomed 96-well plates (#3904, BECTON-DICKINSON, Franklin Lakes, N.J.). The culture medium is emptied from the 96 well plates and FLUO-3 AM calcium sensitive dye (Molecular Probes, Eugene, Oreg.) is added to each well (dye solution: 1 mg FLUO-3 AM, 440 μL DMSO and 440 μl 20% pluronic acid in DMSO, diluted 1:250 in Krebs-Ringer HEPES (KRH) buffer (25 mM HEPES, 5 mM KCl, 0.96 mM NaH2PO4, 1 mM MgSO4, 2 mM CaCl2, 5 mM glucose, 1 mM probenecid, pH 7.4), 50 μl diluted solution per well). Plates are covered with aluminum foil and incubated at 37° C. for 1-2 hours in an environment containing 5% CO2. After the incubation, the dye is emptied from the plates, and the cells are washed once with KRH buffer, and resuspended in KRH buffer.
To measure the ability of a test compound to agonize or antagonize a calcium mobilization response in cells expressing capsaicin receptors to capsaicin or other vanilloid agonist, the EC50 of the agonist capsaicin is first determined. An additional 20 μl of KRH buffer and 1 μl DMSO is added to each well of cells, prepared as described above. 100 μl capsaicin in KRH buffer is automatically transferred by the FLIPR instrument to each well. Capsaicin-induced calcium mobilization is monitored using either FLUOROSKAN ASCENT (Labsystems; Franklin, Mass.) or FLIPR (fluorometric imaging plate reader system; Molecular Devices, Sunnyvale, Calif.) instruments. Data obtained between 30 and 60 seconds after agonist application are used to generate an 8-point concentration response curve, with final capsaicin concentrations of 1 nM to 3 μM. […] software (Synergy Software, Reading, Pa.) is used to fit the data to the equation: y=a*(1/(1+(b/x)^c)) to determine the 50% excitatory concentration (EC50) for the response. In this equation, y is the maximum fluorescence signal, x is the concentration of the agonist or antagonist (in this case, capsaicin), a is the Emax, b corresponds to the EC50 value and c is the Hill coefficient. Determination of Agonist Activity
Test compounds are dissolved in DMSO, diluted in 20 μl KRH buffer so that the final concentration of test compounds in the assay well is between 1 μM and 5 μM, and added to cells prepared as described above. The 96 well plates containing prepared cells and test compounds are incubated in the dark, at room temperature for 0.5 to 6 hours. It is important that the incubation not continue beyond 6 hours. Just prior to determining the fluorescence response, 100 μl capsaicin in KRH buffer at twice the EC50 concentration determined as described above is automatically added by the FLIPR instrument to each well of the 96 well plate for a final sample volume of 200 μl and a final capsaicin concentration equal to the EC50. The final concentration of test compounds in the assay wells is between 1 μM and 5 μM.

Structure (SMILES) | pIC50
COc1cccc(-c2nc(N3CCOCC3)nc(Nc3ccc(C(C)(C)C)cc3)c2C)c1 [Compound 19, (4-tert-Butyl-phenyl)-[6-(3-meth-oxy-phenyl)-5-methyl-2-mor-pholin-4-yl-pyrimidin-4-yl]-amine] | ≥ 6.00
COc1cccc(-c2ncnc(Nc3ccc(C(F)(F)F)cc3)c2N)c1 [Compound 23, 6-(3-Methoxy-phenyl)-N^4-(4-tri-fluoromethyl-phenyl)-pyrimi-dine-4,5-diamine] | ≥ 6.00
CCc1c(Nc2ccc(C(F)(F)F)cc2)ncnc1-c1cccc(OC)c1 [Compound 13, [5-Ethyl-6-(3-methoxy-phenyl)-pyrimidin-4-yl]-(4-tri-fluoromethyl-phenyl)-amine] | ≥ 6.00
COc1cccc(-c2nc(C)nc(Nc3ccc(C(F)(F)F)cc3)c2C)c1 [Compound 15, [6-(3-Methoxy-phenyl)-2,5-di-methyl-pyrimidin-4-yl]-(4-tri-fluoromethyl-phenyl)-amine] | ≥ 6.00
COc1cccc(-c2nc(C)nc(Nc3ccc(C(C)(C)C)cc3)c2C)c1 [Compound 14, (4-tert-Butyl-phenyl)-[6-(3-meth-oxy-phenyl)-2,5-di-methyl-pyrimidin-4-yl]-amine] | ≥ 6.00
CC(C)(C)c1ccc(Nc2cc(-c3cccc(F)c3)ncn2)cc1 [Compound 6, (4-tert-Butyl-phenyl)-[6-(3-fluoro-phenyl)-pyrimidin-4-yl]-amine] | ≥ 6.00
CC(C)(C)c1ccc(Nc2cc(-c3cccc(OC(F)(F)F)c3)ncn2)cc1 [Compound 8, (4-tert-Butyl-phenyl)-[6-(3-tri-fluoromethoxy-phenyl)-pyri-midin-4-yl]-amine] | ≥ 6.00
CCOc1cccc(-c2cc(Nc3ccc(C(C)(C)C)cc3)ncn2)c1 [Compound 9, (4-tert-Butyl-phenyl)-[6-(3-eth-oxy-phenyl)-pyrimidin-4-yl]-amine] | ≥ 6.00
COc1cccc(-c2nc(COCC(C)C)nc(Nc3ccc(C(C)(C)C)cc3)n2)c1 [Compound 11, (4-tert-Butyl-phenyl)-[4-iso-butoxymethyl-6-(3-meth-oxy-phenyl)-[1,3,5]tri-azin-2-yl]-amine] | ≥ 6.00
CC(C)(C)c1ccc(Nc2cc(-c3ccccc3C(F)(F)F)ncn2)cc1 [Compound 5, (4-tert-Butyl-phenyl)-[6-(2-tri-fluoromethyl-phenyl)-pyri-midin-4-yl]-amine] | ≥ 6.00
COc1cccc(-c2ncnc(Nc3ccc(C(C)(C)C)cc3)c2N)c1 [Compound 17, N^4-(4-tert-Butyl-phenyl)-6-(3-meth-oxy-phenyl)-pyrimidine-4,5-di-amine] | ≥ 6.00
CCc1c(Nc2ccc(C(C)(C)C)cc2)ncnc1-c1cccc(OC)c1 [Compound 12, (4-tert-Butyl-phenyl)-[5-ethyl-6-(3-meth-oxy-phenyl)-pyrimi-din-4-yl]-amine] | ≥ 6.00
CC(C)(C)c1ccc(Nc2cc(-c3ccc(Cl)cc3)ncn2)cc1 [Compound 1, (4-tert-Butyl-phenyl)-[6-(4-chloro-phenyl)-pyrimidin-4-yl]-amine] | ≥ 6.00
COc1ccccc1-c1cc(Nc2ccc(C(C)(C)C)cc2)ncn1 [Compound 2, (4-tert-Butyl-phenyl)-[6-(2-meth-oxy-phenyl)-pyrimidin-4-yl]-amine] | ≥ 6.00

More lines, now with the values ahead:

pIC50 | Structure (SMILES)
≥ 6.00 | COc1ccc(-c2cc(Nc3ccc(C(C)(C)C)cc3)ncn2)cc1 [Compound 4, (4-tert-Butyl-phenyl)-[6-(4-meth-oxy-phenyl)-pyrimidin-4-yl]-amine]
≥ 6.00 | COc1cccc(-c2cc(Nc3ccc(C(C)(C)C)cc3)ncn2)c1 [Compound 3, (4-tert-Butyl-phenyl)-[6-(3-meth-oxy-phenyl)-pyrimidin-4-yl]-amine]
≥ 6.00 | COc1ccc(-c2cc(Nc3ccc(C(C)(C)C)cc3)ncn2)cc1OC [Compound 21, (4-tert-Butyl-phenyl)-[6-(3,4-di-methoxy-phenyl)-pyrimidin-4-yl]-amine]
≥ 6.00 | COc1cncc(-c2ncnc(Nc3ccc(C(C)(C)C)cc3)c2C)c1 [Compound 16, (4-tert-Butyl-phenyl)-[6-(5-meth-oxy-pyridin-3-yl)-5-meth-yl-pyrimidin-4-yl]-amine]
≥ 6.00 | CC(C)(C)c1ccc(Nc2cc(-c3ccccc3)ncn2)cc1 [Compound 20, (4-tert-Butyl-phenyl)-(6-phenyl-pyrimidin-4-yl)-amine]
≥ 6.00 | COc1cccc(-c2ncnc(Nc3ccc(C4CCCCC4)cc3)c2N)c1 [Compound 24, N^4-(4-Cyclohexyl-phenyl)-6-(3-meth-oxy-phenyl)-pyrimi-dine-4,5-diamine]
≥ 6.00 | COc1cccc(-c2nc(N3CCOCC3)nc(Nc3ccc(C(F)(F)F)cc3)c2C)c1 [Compound 18, [6-(3-Methoxy-phenyl)-5-meth-yl-2-morpholin-4-yl-pyrimidin-4-yl]-(4-tri-fluoromethyl-phenyl)-amine]
≥ 6.00 | Cc1cccc(-c2cc(Nc3ccc(C(C)(C)C)cc3)ncn2)c1 [Compound 7, (4-tert-Butyl-phenyl)-(6-m-tolyl-pyrimidin-4-yl)-amine]
≥ 6.00 | COc1cccc(-c2ncnc(Nc3ccc(C(C)(C)C)cc3)c2C)c1 [Compound 10, (4-tert-Butyl-phenyl)-[6-(3-meth-oxy-phenyl)-5-methyl-pyrimidin-4-yl]-amine]
